Structures can show the parent of a compound that is named as a salt.
Tested on: MTT (mouse pheochromocytoma)
Assay: IC50 of cell viability (ATP content)
Settings: (24 or 48 h)
Procedure, shortened: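 The IC50 was fitted with a four-parameter logistic equation to normalised CellTiter-Glo ATP luminescence from MTT mouse pheochromocytoma cells. These cells, in white 1536-well plates, had been treated for 24 or 48 hrs with library compounds at 8 final concentrations between 0.5 nM and 46 µM, and luminescence was read after 15 minutes. Positive-control wells served as 100% and DMSO wells as 0%.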

Compound	IC50 of cell viability
CCC1(CCC(C)C)C(=O)NC(=O)NC1=O [(?)-Amobarbital]	> 46 µM
COc1ccc2c(c1OC)C(=O)O[C@H]2[C@H]1c2c(cc3c(c2OC)OCO3)CCN1C [Noscapine]	> 46 µM
CC1=C(/C=C/C(C)=C\C=C\C(C)=C\C=C\C=C(C)\C=C\C=C(C)\C=C\C2=C(C)C[C@@H](O)CC2(C)C)C(C)(C)C[C@H](O)C1 [ZEAXANTHIN]	> 46 µM
F/C(COc1ccc2c(c1)[nH]c1ccccc12)=C1/CN2CCC1CC2	> 46 µM
CSC1=CC=C(C=C1)C(=O)\C2=C(/C)NC(=O)N2 [Enoximone]	> 46 µM
COC(c1ccccc1)(c1ccccc1)C(Oc1nc(C)cc(C)n1)C(=O)O (stereo unspecified) [AMBRISENTAN]	> 46 µM
C#CC1(OC(C)=O)CCC2C3CCC4=CC(OC(C)=O)CCC4C3CCC21C (stereo unspecified) [Ethynodiol Diacetate]	> 46 µM
CCCC(=O)O[C@]1(C(=O)COC(=O)CC)CC[C@@H]2[C@@H]3CCC4=CC(=O)CC[C@]4(C)[C@H]3[C@@H](O)C[C@@]21C [HYDROCORTISONE PROBUTATE]	> 46 µM
[H][C@]12C[C@@]3([H])C4=CCO[C@@H]5CC(=O)N6C([C@@]35[H])[C@]1(CC[N@@]2C4)C7=C6C=CC=C7 (stereo partly specified) [STRYCHNINE]	> 46 µM
NCC[S+](=O)([O-])O [TAURINE]	> 46 µM
Nc1ccc([S+](=O)([O-])NC(=O)c2ccccc2)cc1 [Sulfabenzamide]	> 46 µM
C[C@H](C(=O)O)c1ccc2c(c1)CC(=O)c1ccccc1S2 [Zaltoprofen]	> 46 µM
COC(=O)[C@H]1[C@H]2C[C@@H]3c4[nH]c5cc(OC)ccc5c4CCN3C[C@H]2C[C@@H](OC(=O)c2cc(OC)c(OC)c(OC)c2)[C@@H]1OC [Reserpine]	> 46 µM
Cc1cccc(Nc2ncccc2C(=O)O)c1C [ACIDUM NIXYLICUM]	> 46 µM
CCN(CC)C(=S)S [DITIOCARBUM NATRICUM]	> 46 µM
CCCc1nn(C)c2c(O)nc(-c3cc([S+](=O)([O-])N4CCN(C)CC4)ccc3OCC)nc12 [Sildenafil citrate]	> 46 µM
C[C@H]1[C@@H]2Cc3ccc(O)cc3[C@]1(C)CCN2CCc1ccccc1 [(+)-Phenazocine]	> 46 µM
C\C1=N\C2=C(C=C(Cl)C=C2)[S+]([O-])(=O)N1 [DIAZOXIDE]	> 46 µM
CC1(C)S[C@@H]2[C@H](NC(=O)[C@H](N)c3ccccc3)C(=O)N2[C@@H]1C(=O)OCOC(=O)[C@@H]1N2C(=O)C[C@@H]2S([O-])([O-])C1(C)C [Sultamicillin tosylate]	> 46 µM
C\C1=C\C(=O)OC2=C1C=CC(=C2)O [Hymecromone]	> 46 µM
O=C1C=C(CO)OCC1=O [Kojic acid]	> 46 µM
CCOC(=O)c1ncn2c1CN(C)C(=O)c1c(I)cccc1-2 [IOMAZENIL]	> 46 µM
CO[C@]12C[C@@H](COC(=O)c3cncc(Br)c3)CN(C)[C@@H]1Cc1cn(C)c3cccc2c13 [NICERGOLINE]	> 46 µM

Compound	IC50 of cell viability
O=C(OCC(COC(=O)c1cccnc1)(COC(=O)c1cccnc1)COC(=O)c1cccnc1)c1cccnc1 [Niceritrol]	> 46 µM
CN1CCN(CC1)\C2=N\C3=C(NC4=C2C=CC=C4)C=CC(=C3)Cl [CLOZAPINE]	> 46 µM
C=CCOC(Cn1ccnc1)c1ccc(Cl)cc1Cl (stereo unspecified) [Imazalil sulphate]	> 46 µM
C1CCNCC1.Oc1ncnc2[nH]cc(CN3CCCCC3)c12	> 46 µM
COC(=O)C(CN)c1c[nH]c2ccc(OC)cc12 (stereo unspecified) [Indorenate hydrochloride]	> 46 µM
CN1CC[C@@]23CCCC[C@@H]2[C@@H]1Cc1ccc(O)cc13 [Dextrorphan tartrate]	> 46 µM
CCN(CC)CCC[C@H](C)Nc1c2ccc(Cl)cc2nc2ccc(OC)cc12.Cl.Cl.O.O [Quinacrine dihydrochloride dihydrate]	> 46 µM
Cc1nnc2n1-c1sc(CCc3ccc(CC(C)C)cc3)cc1C(c1ccccc1Cl)=NC2C (stereo unspecified) [ISRAPAFANT]	> 46 µM
CN1CCN(c2cc3c(cc2F)c(=O)c(C(=O)O)cn3-c2ccc(F)cc2)CC1 [DIFLOXACIN HYDROCHLORIDE]	> 46 µM
O=C1[O][Pt]2([NH]C3CCCCC3[NH]2)[O]C1=O (stereo unspecified) [OXALIPLATIN]	> 46 µM
N=C(N)NCCCC[C@@H]1NC(=O)CCSSC[C@@H](C(N)=O)NC(=O)[C@@H]2CCCN2C(=O)[C@H](Cc2c[nH]c3ccccc23)NC(=O)[C@H](CC(=O)O)NC(=O)CNC1=O [EPTIFIBATIDE]	> 46 µM
Clc1ccccc1C(c1ccccc1)(c1ccccc1)n1ccnc1 [Clotrimazole]	> 46 µM
CC/C=C\C/C=C\C/C=C\C/C=C\C/C=C\CCCC(=O)O [EICOSAPENTAENOIC ACID]	> 46 µM
COc1ccc([C@@H]2CC(=O)c3c(O)cc(O[C@@H]4O[C@@H](CO[C@@H]5O[C@@H](C)[C@@H](O)[C@@H](O)[C@H]5O)[C@@H](O)[C@@H](O)[C@H]4O)cc3O2)cc1O [Hesperidin]	> 46 µM
CC(=O)N1CCN(c2ccc(OC[C@@H]3CO[C@@](Cn4ccnc4)(c4ccc(Cl)cc4Cl)O3)cc2)CC1 [Ketoconazole]	> 46 µM
CC(=O)O[C@@]12CO[C@@H]1C[C@H](O)[C@@]1(C)C(=O)[C@H](O)C3=C(C)[C@@H](OC(=O)C(O)[C@@H](NC(=O)OC(C)(C)C)c4ccccc4)C[C@@](O)([C@@H](OC(=O)c4ccccc4)[C@H]21)C3(C)C (stereo partly specified) [DOCETAXEL]	> 46 µM
CC1(C)O[C@@H]2C[C@@H]3[C@@H]4C[C@@H](F)\C5=C\C(=O)CC[C@]5(C)[C@H]4[C@H](O)C[C@@]3(C)[C@]2(O1)C(=O)CO [Flurandrenolide]	> 46 µM
ClC1=CC\2=C(OC3=C(C=CC=C3)\N=C2N4CCNCC4)C=C1 [AMOXAPINE]	> 46 µM
COc1ccc([C@@H]2CNC(=O)C2)cc1OC1CCCC1 [Rolipram]	> 46 µM
C[NH+](C)CCC(c1ccccc1)c1cccc[nH+]1.O=C([O-])CC(=O)[O-] (stereo unspecified) [Pheniramine maleate]	> 46 µM
CC1=CC=CC=C1N2\C(=N/C3=CC=CC=C3C2=O)C [Methaqualone]	> 46 µM
CC(=O)N[C@@H](CC(=O)O)C(=O)N[C@@H](CCC(=O)O)C(=O)O [SPAGLUMIC ACID]	> 46 µM
Cc1c(Cl)cccc1Nc1ncccc1C(=O)O [CLONIXINUM]	> 46 µM
